Test results published in ChEMBL document CHEMBL5303711, “ECBD screening data for assay EOS300108” (2023).
Structures can show the parent of a compound that is named as a salt. Active and inactive are the calls of the source. The rule behind the calls is not given here.

Test: Cytotoxicity activity against human HepG2 cells assessed by CellTiter-Glo luminescent cell viability assay.
Assay type: toxicity, cell-based
Parameters: assay stage confirmatory assay, source tissue liver
Settings: HepG2 cells, read-out: IC50 relative

Row | Structure (SMILES) | CC50
1 | C=CC(=O)N1CCN(CCCn2c(=O)c(-c3c(Cl)c(OC)cc(OC)c3Cl)cc3cnc(NC)nc32)CC1 [PRN-1371] | 9.6 µM (active)
2 | CCCNC(=O)N1CC(Oc2ccc(-c3noc(-c4ccncc4)n3)cc2)C1 | 3.1 µM (active)
3 | OC(c1ccccc1)C(CN1CCCC1)c1ccccc1 (stereo not given) | 8.8 µM (active)
4 | O=c1c2ccccc2sn1CN1CCN(c2ccc(C(F)(F)F)cn2)CC1 | 8.6 µM (active)
5 | CNC(=O)c1ccccc1Nc1nc(Nc2ccc3c(c2OC)CCC[C@H](N2CCN(CCO)CC2)C3)ncc1Cl [CEP-37440] | 0.8 µM (active)
6 | CN[C@@H](C)C(=O)N[C@H](C(=O)N1CCC[C@H]1C(=O)N[C@H]1c2ccccc2C[C@H]1OCC#CC#CCO[C@@H]1Cc2ccccc2[C@@H]1NC(=O)[C@@H]1CCCN1C(=O)[C@@H](NC(=O)[C@H](C)NC)C1CCCCC1)C1CCCCC1 | 3.7 µM (active)
7 | C=CCNC1=C2C[C@@H](C)C[C@H](OC)[C@H](O)[C@@H](C)/C=C(/C)[C@H](OC(N)=O)[C@@H](OC)/C=C\C=C(\C)C(=O)NC(=CC1=O)C2=O | < 0.1 µM (active)
8 | CCOc1ccccc1C(=O)N1CCN(c2ccccc2OCC)CC1 | 15.1 µM (inactive)
9 | CC(C)Oc1ccc(-c2c[nH]cc2CN(C)CCN)cc1 | 23.3 µM (inactive)
10 | CC(C)[C@H](NC1CCN(C(=O)c2ccoc2)CC1)c1ccccc1 | 10.7 µM (active)
11 | COc1cccc2c1C(=O)c1c(O)c3c(c(O)c1C2=O)CC(O)(C(=O)CO)CC3OC1CC(N)C(O)C(C)O1 (stereo not given) | 0.4 µM (active)
12 | CNC(=O)c1nn(C)c2c1C(C)(C)Cc1cnc(Nc3ccc(N4CCN(C)CC4)cc3)nc1-2 [MILCICLIB] | 0.9 µM (active)
13 | O=C1NC(=O)C(c2cnc3ccccn23)=C1c1cn2c3c(cc(F)cc13)CN(C(=O)N1CCCCC1)CC2 [LY-2090314] | 9.5 µM (active)
14 | CCCc1cc(C(=O)NCC2CN(C3CCN(C4CCC4)CC3)C(=O)CO2)n(C)n1 (stereo not given) | 50 µM (inactive)
15 | CCOc1ccc(NC(=O)CNC[C@H]2CCCO2)cc1C | 40.3 µM (inactive)
16 | Cc1ccc(C)c(-c2cc(C(F)(F)F)nn2-c2ccc(S(N)(=O)=O)cc2)c1 [DIMETHYL CELECOXIB] | 18.1 µM (inactive)
17 | CCOC(=O)CNS(=O)(=O)c1cc(-c2nnc(Nc3cccc(O)c3)c3ccccc23)ccc1C | 4.1 µM (active)
18 | CN(C)c1ccnc(NCCc2cc(F)cc3c2OCOC3)n1 | 10.2 µM (active)
19 | C[C@@H]1CN(c2cc(-c3n[nH]c4ccc(OC5(C)CC5)cc34)ncn2)C[C@H](C)O1 [MLi-2] | 16.5 µM (active)
20 | COc1cc(F)cc2sc(NC(=O)c3cc(N4CCOCC4)ccn3)nc12 | 48.8 µM (inactive)
21 | Cc1sc2c(c1C)C(c1ccc(Cl)cc1)=N[C@@H](CC(=O)OC(C)(C)C)c1nnc(C)n1-2 | 1.2 µM (active)
22 | CS(=O)(=O)N1CCc2ccc(NC(=O)Nc3cccc(C#N)c3)cc21 | 9.7 µM (active)

Row | Structure (SMILES) | CC50
23 | O=C(c1cccs1)c1no[n+]([O-])c1C(=O)c1cccs1 | 1.8 µM (active)
24 | CSc1cccc(NS(=O)(=O)c2ccc3c(c2)CCN3C(C)=O)c1 | 6.6 µM (active)
25 | CN1CCN(c2cc3c(cc2S(=O)(=O)N2CCCCCC2)C(=O)Nc2ccccc2O3)CC1 | 11.5 µM (active)
26 | O=C(NCc1ccccc1)c1c(O)c2cccnc2n(Cc2ccccc2)c1=O | 6.9 µM (active)
27 | CN(C)C/C=C/C(=O)Nc1ccc(C(=O)N2CCC[C@@H](Nc3ncc(Cl)c(-c4c[nH]c5ccccc45)n3)C2)cc1 | 0.1 µM (active)
28 | COc1ccc([C@@H]2CCCN2c2cnn(C(C)(C)C)c(=O)c2Cl)cc1 | 11.1 µM (active)
29 | COc1ccc(NC(=O)Nc2ccc3nc(S(C)(=O)=O)sc3c2)cc1 | 17.5 µM (inactive)
30 | Cc1cc(OCC(O)CN2CCN(C)CC2)cc(C)c1Cl (stereo not given) | 13.9 µM (inactive)
31 | CN1C[C@H](CNC(=O)OCc2ccccc2)C[C@@H]2c3cccc4c3c(cn4C)C[C@H]21 [METERGOLINE] | 6.3 µM (active)
32 | CC(C)Oc1ccc(C(=O)Nc2ccc3c(c2)N(S(C)(=O)=O)CCC3)cc1 | 2.7 µM (active)
33 | C[C@H]1O[C@@H](O[C@H]2[C@@H](O)C[C@H](O[C@H]3[C@@H](O)C[C@H](O[C@H]4CC[C@@]5(C)[C@H](CC[C@@H]6[C@@H]5C[C@@H](O)[C@]5(C)[C@@H](C7=CC(=O)OC7)CC[C@]65O)C4)O[C@@H]3C)O[C@@H]2C)C[C@H](O)[C@@H]1O [DIGOXIN] | 0.2 µM (active)
34 | COc1cc(C)c(Sc2cnc(NC(=O)c3ccc(CNC(C)C(C)(C)C)cc3)s2)cc1C(=O)N1CCN(C(C)=O)CC1 (stereo not given) | 7.5 µM (active)
35 | c1ccc2c(OCCN3CCC(N4CCCCC4)CC3)cccc2c1 | 6.4 µM (active)
36 | Cc1n[nH]c(C)c1CC(=O)Nc1cnn([C@@H](C)C2CC2)c1 | 50 µM (inactive)
37 | Nc1ccc2cc3ccc(N)cc3nc2c1 | 3.2 µM (active)
38 | Cc1cc(NC(=O)N[C@H]2CCN(CC3CCCC3)C2)cc(N2CCN(C)CC2)c1 | 9.3 µM (active)
39 | N#Cc1cnn(C(=O)c2ccc(OCc3ccccc3)cc2)c1N | 6.1 µM (inactive)
40 | COc1ccc(C)cc1CN(C)C(=O)CCn1c(=O)[nH]c(=O)c2ccccc21 | 0.2 µM (active)
41 | CC(C)(C)c1ccc(CSc2cnn(C(C)(C)C)c(=O)c2Cl)cc1 [PYRIDABEN] | 0.3 µM (active)
42 | Cc1cc(C)c(Nc2ccnc(Nc3ccc(C#N)cc3)n2)c(C)c1 [DAPIVIRINE] | 6.5 µM (active)
43 | O=C(Nc1ccc(O)cc1)c1cnn(Cc2ccccc2Cl)c1 | 8.4 µM (active)
44 | O=C(Nc1cccnc1)c1ccc(Cn2nc(N3CCN(c4ccccc4)CC3)ccc2=O)o1 | 5.7 µM (active)

Row | Structure (SMILES) | CC50
45 | COc1cc(N2CCN(C)CC2)ccc1Nc1nccc(-c2cn(C)c3cnccc23)n1 | 4.4 µM (active)
46 | CC(C)N1CC(CN)C2(CCCCC2)C1 (stereo not given) | 11.6 µM (active)
47 | O=C(Nc1cccc(Nc2ncc(Br)c(NCCc3c[nH]cn3)n2)c1)N1CCCC1 | 3.3 µM (active)
48 | CCNC(=O)C#Cc1ccc2c(c1)NC(=O)/C2=C(\Nc1ccc(CN(C)C)cc1)c1ccccc1 | < 0.1 µM (active)
49 | Cc1cc(C)cc(C(=O)N2CCN(c3cc(=O)n(C(C)C)c(=O)n3C(C)C)CC2)c1 | 3.5 µM (active)
50 | COCC(=O)Nc1ccc(Nc2nc(C)cc(N3CCCC3)n2)cc1 | 3.6 µM (active)
51 | CN(C)CCNC(=O)c1ccc2c(c1)n(Cc1cccc(F)c1)c(=O)c1ccnn12 | 12.7 µM (active)
52 | CCCc1cc(N2CCN(CCO)CC2)n2ncc(-c3ccccc3)c2n1 | 11.5 µM (active)
53 | CN1C[C@H](C(=O)N[C@]2(C)O[C@@]3(O)[C@@H]4CCCN4C(=O)[C@H](Cc4ccccc4)N3C2=O)C[C@@H]2c3cccc4[nH]cc(c34)C[C@H]21 [DIHYDROERGOTAMINE MESYLATE] | 12.9 µM (active)
54 | CNc1cc2c(Nc3cccc(Br)c3)ncnc2cn1 | 20.5 µM (inactive)
55 | COc1ccc(C(N)=O)c(OCc2cn3ccccc3c2C#N)c1 | 10.7 µM (inactive)
56 | Oc1ccccc1N1CCN(C[C@H](O)COc2ccc(Oc3ccccc3)cc2)CC1 | 19.2 µM (inactive)
57 | CCOc1ccc(NC(=O)c2nc(S(C)(=O)=O)ncc2Br)cc1 | 1.6 µM (active)
58 | O=C(Nc1cccc(Cl)c1)Nc1ncc(CCNc2ncnc3ccsc23)s1 [SNS-314 MESYLATE] | 10.1 µM (active)
59 | O=C(CCN1CCC(c2ccccc2)C1)c1ccc2c(c1)OCCO2 (stereo not given) [PROROXAN HYDROCHLORIDE] | 8.4 µM (active)
60 | NCc1ccc(C(=O)NC2CCc3c[nH]nc3C2)cc1 (stereo not given) | 9.4 µM (active)
61 | Cc1noc2ncnc(N3CCC(C(=O)N4CCc5ccccc54)CC3)c12 | 10.9 µM (active)
62 | Cn1c(=O)c2c(ncn2CCn2ncc(Cl)c(Cl)c2=O)n(C)c1=O | 11.7 µM (active)
63 | O=c1cc(CSc2ccccc2)nc2sc(-c3ccco3)nn12 | 3.2 µM (active)
64 | Cc1cc(C)cc(C(=O)NOCCCCCC(=O)NO)c1 | 0.5 µM (active)
65 | CNc1cccc(NC(=O)N[C@@H]2N=C(c3ccccn3)c3ccccc3N(CC(=O)C(C)(C)C)C2=O)c1 [NETAZEPIDE] | 18.4 µM (inactive)
66 | CN(C)CCCNC(=O)c1ccc(-c2cc(O)c3ncccc3c2)cc1 | 8 µM (active)

Row | Structure (SMILES) | CC50
67 | CCS(=O)(=O)c1ccc(NC(=O)c2ccc(F)c(S(=O)(=O)N3CCCCC3)c2)cc1 | 6.1 µM (inactive)
68 | CC[S+]([O-])c1nc(-c2cccc(OCc3ccccc3)c2)cc(C(F)(F)F)n1 (stereo not given) | 5.3 µM (active)
69 | Cc1c(NC(=O)OC[C@@H]2COCCN2)cn2ncnc(Nc3ccc4c(cnn4Cc4cccc(F)c4)c3)c12 | 9 µM (active)
70 | COC(=O)C1=C(C)NC(C)=C(C(=O)OCC(C)C)C1c1ccccc1[N+](=O)[O-] (stereo not given) [NISOLDIPINE] | 11.1 µM (active)
71 | C[C@H](O)CN1CCC(CNCc2ccc(Br)cc2)CC1 | 5.3 µM (active)
72 | O=S(=O)(c1cccc2c(I)cccc12)N1CCCNCC1 | 9.7 µM (active)
73 | CON(C)C(=O)N1N=C(c2cc(F)ccc2F)S[C@@]1(CCCN)c1ccccc1 [FILANESIB] | 11 µM (active)
74 | O=C(CCN1CCN(C(=O)OCc2cc(Cl)cc(Cl)c2)CC1)c1ccc2[nH]c(=O)oc2c1 | 20.6 µM (inactive)
75 | Cc1ccc(-n2nc(C(C)(C)C)cc2NC(=O)NCc2cc(F)ccc2Oc2ccc3c(cnn3CCO)c2)cc1 [PEXMETINIB] | 2.4 µM (active)
76 | CCc1nc(N)nc(N)c1-c1ccc(Cl)cc1 [PYRIMETHAMINE] | 6 µM (active)
77 | COc1ccc2[nH]c(NC(=O)[C@@H]3CCCC(=O)N3)cc2c1 | 4.6 µM (active)
78 | CC[C@@H]1C(=O)N(C)c2cnc(Nc3ccc(C(=O)N[C@H]4CC[C@H](N5CCN(CC6CC6)CC5)CC4)cc3OC)nc2N1C(C)C [VOLASERTIB] | 0.9 µM (active)
79 | COc1cc(/C=C/C(=O)CC(=O)/C=C/c2ccc(O)cc2)ccc1O | 11.5 µM (active)
80 | CNC(=O)c1c(F)cccc1Nc1nc(Nc2cc3c(cc2OC)CCN3C(=O)CN(C)C)nc2[nH]ccc12 | 3.6 µM (active)
81 | CN(C)Cc1ccc(C(=O)Nc2nc3c(s2)CCCC3)cc1 | 11.3 µM (active)
82 | NCCCNc1nc(-c2ccccc2)nc2ccccc12 | 11.9 µM (active)
83 | c1ccc(Oc2cccc(C[C@H]3CCCN3)c2)cc1 | 13.7 µM (inactive)
84 | Cc1cccc(C(=O)Nc2nc(-c3nccn3C)cs2)c1 | 4.7 µM (active)
85 | CCOc1ccccc1NC(=O)COc1cccc2c(=O)n(C)ccc12 | 1.4 µM (inactive)
